Values of other authors, collected in patent US9861587B2, “Composition and method for treating ketosis in cows” (RP FEED COMPONENTS, LLC, priority 2011, dated 2018).

Assays:
ketotic cows = settings: two ketotic cows; daily injections or oral administration of 12.5 g
bovine ketosis = settings: oral administration
[1] = test system: cases of clinical ketosis; settings: six cases; orally 40 g once daily for seven days; 21-day examination period

Row | Compound | treatment of ketosis (ketotic cows) | symptoms of bovine ketosis (bovine ketosis) | serum ketone levels [1]
1 | CSCCC(N)C(=O)O (racemic) [DL-methionine] | unsuccessful treatment | – | –
2 | DL-α-hydroxy-γ-methylmercaptobutyrate calcium [methionine hydroxy analog (MHA)] | – | aided in alleviating symptoms of bovine ketosis | fell slowly over a 21-day examination period, but never returned to normal levels
